This is an account of results in US11591596B2, “Compounds and compositions including phosphorothioated oligodeoxynucleotide, and methods of use thereof” (City of Hope, priority 2015, dated 2023).

For assay [1], the system named is miR126. Nature of the assay: miRNA126 expression in NL/CB, AML and CML CD34+ cells by Q-RT-PCR. The class given is cell-based, human. The settings on record: 500 nM, 24 hours; primary patients' AML and CML CD34+ cells. Here is the method: FIG. 5 is a bar graph showing the expression of miRNA 126 in NL/CB, AML and CML CD34+ cells. Normal, cord blood, AML and CML CD34+ cells were cultured with CpG-scramble RNA (500 nM) and CpG-miR 126 inhibitor-Cy3 (500 nM) for 24 hours. miR126 and RNU44 (control) expression was analyzed by q-RT-PCR. The miR126 expression levels were normalized to RNU44 and calculated by using the comparative 2^−ΔΔct method.
Normal, cord blood, AML and CML CD34+ cells were cultured with CpG-scramble RNA (500 nM) and CpG-anti-miR126 inhibitor-Cy3 (500 nM) for 24 hours, and then miR126 and RNU44 (ctrl) expression in these cells were analyzed by Q-RT-PCR (FIG. 5). The miR126 expression levels were normalized to RNU44 and calculated by using the comparative 2^−ΔΔCt method.

Assay [2] has as its system miR-126. Kind of assay: In vitro and in vivo uptake and miR-126 silencing (K562, HUVEC, CD34+CD38- cells, murine CML BM, LTHSC, EC, mice). The settings on record: 500 nM in vitro; 5 mg/kg iv in vivo. Details: species or system human and mouse. As to the method:
FIGS. 23A-23K. […] Uptake test measured by flow cytometric analysis at 4 hours (FIG. 23A) and 24 hours (FIG. 23B) after addition of CpG-miR-126 inhibitor-Cy3 (CpG), Ab-NPs (Ab-NP) or TF-NPs (TF-NP) containing miR-126 inhibitor-Cy3, or naked miR-126 inhibitor-Cy3 (labeled as Control in FIGS. 23A and B) in K562 cells. The experiment was replicated twice. miR-126 expression in K562 was measured by Q-RT-PCR at 24 hours (n=3) (FIG. 23C). Uptake in HUVEC (FIG. 23D), human normal (FIG. 23E) and CML (FIG. 23F) CD34^+CD38^− cells at 4 hours after addition of CpG-miR-126 inhibitor-Cy3 (500 nM) was measured by flow cytometry. miR-126 expression in HUVEC (FIG. 23G), normal (FIG. 23H) and CML (FIG. 23I) CD34^+CD38^− cells treated with CpG-miR-126 inhibitor (500 nM) for 24 hours is shown (n=4). […]
FIGS. 25A-25O. […] Murine CML BM, LTHSC and EC cells were treated with CpG-miR-126 inhibitor-Cy3 (500 nM) for 4 hours and then Cy3^+ cells were detected by flow cytometry (FIG. 25A). The cells were also collected at 24 hours and miR-126 expression was determined by Q-RT-PCR (FIG. 25B). Cell cycling was measured by EDU staining at 72 hours after addition of CpG-miR-126 inhibitor in CML BM LTHSC. […] CML mice were treated with CpG-miR-126 inhibitor-Cy3 with one dose (5 mg/kg, iv injection) and Cy3 uptake in BM, LTHSC and EC was measured at 16 hours after treatment by flow cytometry (FIG. 25D). […]

In the case of “5′ G*G*T GCA TCG ATG CAGG*G*G* G*G (SEQ ID NO: 1) xxxxx mCmGmC mAmUmU mAmUmU mAmCmU mCmAmC mGmGmU mAmCmG mA (SEQ ID NO: 17) 3′ [CpG-anti-miR126]”, the “reduction of miR126 expression” value in assay [1] is reported as 60%-90%. The “uptake and gene silencing effects” value in assay [2] is “Effective in vitro and in vivo uptake and gene silencing effects”.
